Experiment: xn = mol fraction of the nth substance listed
Conditions: 101 kPa, Liquid; for viscosity: Capillary tube (Ostwald / Ubbelohde) method; for mass density: Vibrating tube method

CCCCCCO [hexan-1-ol] + CC(C)CC(C)(C)C
Conditions	mass density [kg/m3]	viscosity [mPa·s]
298.15 K, x2 = 0	815.3	4.605
298.15 K, x2 = 0.1001	799.99	3.428
298.15 K, x2 = 0.2	785	2.565
298.15 K, x2 = 0.3001	770.65	1.933
298.15 K, x2 = 0.4	756.92	1.452
298.15 K, x2 = 0.5	743.89	1.124
298.15 K, x2 = 0.6001	731.33	0.899
298.15 K, x2 = 0.7001	719.63	0.737
298.15 K, x2 = 0.7997	708.41	0.621
298.15 K, x2 = 0.8998	697.73	0.536
298.15 K, x2 = 0.9199	695.61	–
298.15 K, x2 = 0.9396	693.66	–
298.15 K, x2 = 0.9595	691.69	–
303.15 K, x2 = 0	811.71	3.944
303.15 K, x2 = 0.1001	796.32	2.958
303.15 K, x2 = 0.2	781.24	2.236
303.15 K, x2 = 0.3001	766.82	1.728
303.15 K, x2 = 0.4	753.03	1.306
303.15 K, x2 = 0.5	739.93	1.051
303.15 K, x2 = 0.6001	727.33	0.829
303.15 K, x2 = 0.7001	715.58	0.688
303.15 K, x2 = 0.7997	704.3	0.582
303.15 K, x2 = 0.8998	693.58	0.504
303.15 K, x2 = 0.9199	691.45	–
303.15 K, x2 = 0.9396	689.52	–
303.15 K, x2 = 0.9595	687.54	–
308.15 K, x2 = 0	808.09	3.414
308.15 K, x2 = 0.1001	792.61	2.592
308.15 K, x2 = 0.2	777.46	1.965
308.15 K, x2 = 0.3001	762.96	1.536
308.15 K, x2 = 0.4	749.11	1.18
308.15 K, x2 = 0.5	735.95	0.941
308.15 K, x2 = 0.6001	723.29	0.775
308.15 K, x2 = 0.7001	711.48	0.643
308.15 K, x2 = 0.7997	700.16	0.546
308.15 K, x2 = 0.8998	689.39	0.476
308.15 K, x2 = 0.9199	687.26	–
308.15 K, x2 = 0.9396	685.32	–
308.15 K, x2 = 0.9595	683.35	–
313.15 K, x2 = 0	804.43	2.96
313.15 K, x2 = 0.1001	788.88	2.275
313.15 K, x2 = 0.2	773.65	1.745
313.15 K, x2 = 0.3001	759.07	1.361
313.15 K, x2 = 0.4	745.15	1.071
313.15 K, x2 = 0.5	731.93	0.861
313.15 K, x2 = 0.6001	719.21	0.721
313.15 K, x2 = 0.7001	707.36	0.596
313.15 K, x2 = 0.7997	695.98	0.512
313.15 K, x2 = 0.8998	685.18	0.449
313.15 K, x2 = 0.9199	683.03	–
313.15 K, x2 = 0.9396	681.09	–
313.15 K, x2 = 0.9595	679.12	–
318.15 K, x2 = 0	800.75	2.581
318.15 K, x2 = 0.1001	785.1	1.997
318.15 K, x2 = 0.2	769.8	1.577
318.15 K, x2 = 0.3001	755.15	1.23
318.15 K, x2 = 0.4	741.15	0.976
318.15 K, x2 = 0.5	727.88	0.807
318.15 K, x2 = 0.6001	715.1	0.658
318.15 K, x2 = 0.7001	703.19	0.559
318.15 K, x2 = 0.7997	691.77	0.483
318.15 K, x2 = 0.8998	680.92	0.424
318.15 K, x2 = 0.9199	678.78	–
318.15 K, x2 = 0.9396	676.83	–
318.15 K, x2 = 0.9595	674.86	–
323.15 K, x2 = 0	797.02	2.251
323.15 K, x2 = 0.1001	781.29	1.778
323.15 K, x2 = 0.2	765.91	1.391
323.15 K, x2 = 0.3001	751.18	1.113
323.15 K, x2 = 0.4	737.12	0.894
323.15 K, x2 = 0.5	723.78	0.747
323.15 K, x2 = 0.6001	710.95	0.623
323.15 K, x2 = 0.7001	698.99	0.523
323.15 K, x2 = 0.7997	687.52	0.455
323.15 K, x2 = 0.8998	676.63	0.402
323.15 K, x2 = 0.9199	674.48	–
323.15 K, x2 = 0.9396	672.54	–
323.15 K, x2 = 0.9595	670.56	–
